Results published in patent US20100280015A1 (priority 2007, published 2010).
Where a name gives a salt, the structure may show the parent alone.

Target: α7-subtype of nicotinic receptors (Rattus norvegicus, UniProt Q05941)
Test: biochemical
Type: binding

Chain of α7-subtype of nicotinic receptors (Q05941 23-502): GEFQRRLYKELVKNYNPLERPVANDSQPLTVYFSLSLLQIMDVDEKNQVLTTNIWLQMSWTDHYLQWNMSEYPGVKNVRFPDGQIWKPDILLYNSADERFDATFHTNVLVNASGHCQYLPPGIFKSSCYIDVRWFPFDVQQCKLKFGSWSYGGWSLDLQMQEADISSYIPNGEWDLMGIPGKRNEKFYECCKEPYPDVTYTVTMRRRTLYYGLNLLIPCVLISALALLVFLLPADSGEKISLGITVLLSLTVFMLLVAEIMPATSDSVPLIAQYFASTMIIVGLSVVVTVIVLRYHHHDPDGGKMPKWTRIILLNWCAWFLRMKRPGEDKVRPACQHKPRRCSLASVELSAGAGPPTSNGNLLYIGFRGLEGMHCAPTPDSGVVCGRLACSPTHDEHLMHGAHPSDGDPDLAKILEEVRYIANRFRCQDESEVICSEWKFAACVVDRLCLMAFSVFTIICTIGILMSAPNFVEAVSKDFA

SMILES	IC50 [nM]
c1ccc(Oc2cccc(-c3nnc(N4CCN5CCC4CC5)o3)c2)cc1 [Compound A2, 4-[5-(3-Phenoxy-phenyl)-[1,3,4]oxadiazol-2-yl]-1,4-diaza-bicyclo[3.2.2]nonane fumaric acid salt]	< 1000
c1ccc(Oc2ccccc2-c2nnc(N3CCN4CCC3CC4)o2)cc1 [Compound A1, 4-[5-(2-Phenoxy-phenyl)-[1,3,4]oxadiazol-2-yl]-1,4-diaza-bicyclo[3.2.2]nonane fumaric acid salt]	< 100
